The numbers were not newly measured in patent US20180191016A1, “FLOW BATTERIES INC[…] PHE[…] WITHIN AN AQUEOUS ELECTROLYTE SOLUTION” (LOCKHEED MARTIN ADVANCED ENERGY STORAGE, LLC, priority 2017, published 2018), which cites them from elsewhere.

The conditions of the data set: compared to a reversible hydrogen electrode.

Consider `c1ccc2c(c1)Nc1ccccc1S2` [phenothiazine], for which the standard reduction potential result is reported as “approximately +0.9 V”.
